ChEMBL document CHEMBL1140148, “Structure-activity studies on a series of a 2-aminopyrimidine-containing histamine H4 receptor ligands” (J Med Chem, 2008)

Columns and labels:
Rattus norvegicus [1] = assay: Plasma concentration in rat at 30 umol/kg, ip; assay type: ADME, organism-based; conditions: in vivo
Rattus norvegicus [2] = assay: Plasma concentration in rat at 100 umol/kg, ip; assay type: ADME, organism-based; conditions: in vivo
[3] = Protein binding in ip dosed rat plasma; assay type: ADME, organism-based; conditions: read-out: PPB (converted)
Rattus norvegicus [4] = assay: Plasma concentration in rat at 80 umol/kg, ip; assay type: ADME, organism-based; conditions: in vivo
Rattus norvegicus [5] = assay: Antiinflammatory activity against carrageenan-induced hyperalgesia in rat assessed as increase in paw withdrawal at 300 umol/kg, ip relative to control; assay type: functional
Rattus norvegicus [6] = assay: Plasma concentration in rat at 300 umol/kg, ip; assay type: ADME, organism-based; conditions: in vivo
[7] = Terminal volume of distribution in rat at 10 mg/kg, iv; assay type: ADME, organism-based; design: dose 10 mg/kg, route intravenous; conditions: in vivo, read-out: Vbeta
[8] = Terminal volume of distribution in mouse at 5 mg/kg, iv; assay type: ADME, organism-based; design: dose 5 mg/kg, route intravenous; conditions: in vivo, read-out: Vbeta
[9] = Cmax in rat at 10 mg/kg, iv; assay type: ADME, organism-based; design: dose 10 mg/kg, route intravenous; conditions: in vivo
[10] = Cmax in mouse at 5 mg/kg, iv; assay type: ADME, organism-based; design: dose 5 mg/kg, route intravenous; conditions: in vivo
[11] = Half life in rat at 10 mg/kg, iv; assay type: ADME, organism-based; design: dose 10 mg/kg, route intravenous; conditions: in vivo
[12] = Half life in mouse at 5 mg/kg, iv; assay type: ADME, organism-based; design: dose 5 mg/kg, route intravenous; conditions: in vivo
[13] = Tmax in rat at 10 mg/kg, po; assay type: ADME, organism-based; design: dose 10 mg/kg, route oral; conditions: in vivo
[14] = Tmax in mouse at 20 mg/kg, po; assay type: ADME, organism-based; design: dose 20 mg/kg, route oral; conditions: in vivo
[15] = Bioavailability in rat at 10 mg/kg, po; assay type: ADME, organism-based; conditions: in vivo
[16] = Bioavailability in mouse at 20 mg/kg, po; assay type: ADME, organism-based; conditions: in vivo
[17] = Cmax in rat at 10 mg/kg, po; assay type: ADME, organism-based; design: dose 10 mg/kg, route oral; conditions: in vivo
[18] = Cmax in mouse at 20 mg/kg, po; assay type: ADME, organism-based; design: dose 20 mg/kg, route oral; conditions: in vivo
[19] = Half life in rat at 10 mg/kg, po; assay type: ADME, organism-based; design: dose 10 mg/kg, route oral; conditions: in vivo
[20] = Half life in mouse at 20 mg/kg, po; assay type: ADME, organism-based; design: dose 20 mg/kg, route oral; conditions: in vivo
Histamine H3 receptor = Histamine H3 receptor (Homo sapiens, UniProt Q9Y5N1); assay: Binding affinity to human histamine H3 receptor
Mus musculus [21] = assay: Antiinflammatory activity in zymosan-induced peritonitis in sc dosed BALB/c mouse model assessed as decrease in myeloperoxidase activity in peritoneal lavage; assay type: functional
Mus musculus [22] = assay: Antiinflammatory activity in ip dosed CD1/ICR mouse assessed as reduction of clobenpropit-induced itching; assay type: functional
[23] = Plasma concentration in mouse at 25 umol/kg, ip after 30 mins; assay type: ADME, organism-based
Rattus norvegicus [24] = assay: Antiinflammatory activity against carrageenan-induced thermal hyperalgesia in rat assessed as increase in paw withdrawal at 100 umol/kg, ip relative to control; assay type: functional
Rattus norvegicus [25] = assay: Antiinflammatory activity against carrageenan-induced thermal hyperalgesia in ip dosed rat assessed as increase in paw withdrawal; assay type: functional

Sequence of Histamine H3 receptor (Q9Y5N1 whole entry): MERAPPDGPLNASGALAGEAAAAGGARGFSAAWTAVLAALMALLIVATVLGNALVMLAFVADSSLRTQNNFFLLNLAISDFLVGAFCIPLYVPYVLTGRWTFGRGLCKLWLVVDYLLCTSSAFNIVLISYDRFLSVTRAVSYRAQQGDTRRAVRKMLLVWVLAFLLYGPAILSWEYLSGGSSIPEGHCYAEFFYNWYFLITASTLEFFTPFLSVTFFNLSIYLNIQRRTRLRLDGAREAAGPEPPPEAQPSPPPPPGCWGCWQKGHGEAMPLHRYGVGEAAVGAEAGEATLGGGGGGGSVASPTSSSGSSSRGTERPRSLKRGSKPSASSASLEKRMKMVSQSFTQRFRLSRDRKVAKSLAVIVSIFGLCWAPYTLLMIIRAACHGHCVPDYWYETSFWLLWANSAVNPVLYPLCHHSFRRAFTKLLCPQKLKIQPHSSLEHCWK

SMILES: CN1CCN(C(=O)c2cc3cc(Cl)ccc3[nH]2)CC1 [JNJ-7777120]
- Cp (Rattus norvegicus [1]): 432 ng/mL
- Cp (Rattus norvegicus [2]): 1454 ng/mL
- fraction unbound [3]: 0.28
- Cp (Rattus norvegicus [4]): 1200 ng/mL
- Activity (Rattus norvegicus [5]): 96%
- Cp (Rattus norvegicus [6]): 4135 ng/mL
- Vd [7]: 37 L/kg
- Vd [8]: 24 L/kg
- Cmax [9]: 1140 ng/mL
- Cmax [10]: 560 ng/mL
- half-life [11]: 1.7 h
- half-life [12]: 0.7 h
- Tmax [13]: 0.25 h
- Tmax [14]: 1.33 h
- bioavailability [15]: 47%
- bioavailability [16]: 24%
- Cmax [17]: 220 ng/mL
- Cmax [18]: 140 ng/mL
- half-life [19]: 2.5 h
- half-life [20]: 1.4 h
- Ki (Histamine H3 receptor): 2240 nM
- ED50 (Mus musculus [21]): 61 µmol/kg
- ED50 (Mus musculus [22]): 25 µmol/kg
- concentration at 0.5 h [23]: 860 ng/mL
- Activity (Rattus norvegicus [24]): 49%
- ED50 (Rattus norvegicus [25]): 80 µmol/kg
